Assay [1] deals with T1, A2A receptor (Homo sapiens, UniProt P29274).
T1 construct: host or cells: HEK-293
Put plainly: A2aR antagonism IC50, cAMP TR-FRET in HEK-293 cells, high concentration of adenosine (30 μM).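 Also: compounds added 10 min before adenosine, then 30 min stimulation at room temperature in buffer with 100 µM rolipram and 30 µM EHNA, signal read 1 h after detection reagents.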 The class given is cell-based. Particulars: HEK-293 cells expressing A2A receptor; agonist adenosine 30 μM; 2% HSA; inhibition of cAMP; read-out: A2AR IC50 (nM) (@30 μM Adenosine). Background: Time-resolved FRET reads energy transfer from a long-lived donor to a nearby acceptor.
Method: (§1) A Time-Resolved Fluorescence Energy Transfer (TR-FRET) assay was used to show the inhibition of this cAMP production in HEK cells upon treatment with compounds of the Formula I of the present disclosure.
(§2) HEK-293 cells expressing A2A receptor (#ES-011-C) or A2B receptor (#ES 013-C) were obtained from PerkinElmer. Cells were maintained in DMEM medium supplemented with 10% FBS and 200 μg/mL of G418 at 37° C. and 5% CO2. The cells were cultured in antibiotic free medium for a period of 16-20 hours prior to the assay. All subsequent steps of the assay are performed at room temperature (22-24° C.). […] About 1500 cells per well were pre-incubated for 10 minutes with the compounds of the present invention before adding the agonist Adenosine at a high concentration (30 μM) for a total stimulation time of 30 minutes. […] The assays were conducted in a stimulation buffer containing 1×DMEM, 5 mM HEPES, 2% Human serum albumin (HSA), 100 μM Rolipram and 30 μM erythro-9-(2-hydroxy-3-nonyl) adenine (EHNA). Serial dilutions of compounds were made in stimulation buffer to achieve a final concentration of high micromolar in a reaction volume of 10 μL. The total reaction volume was 10 μL (5 μL of cells, 2.5 μL of antagonist and 2.5 μL of agonist). […] The stimulation was ended, and the reaction completed by adding 5 μL of 4× Eu-cAMP tracer working solution and 5 μL of 4× ULight-anti-cAMP working solution. The TR FRET signal was measured after 1-hour incubation using a Tecan M1000 or a PerkinElmer Victor Nivo plate reader.

For assay [2], the target named is T2, A2B receptor (Homo sapiens, UniProt P29275).
T2 sequence (P29275 1-332): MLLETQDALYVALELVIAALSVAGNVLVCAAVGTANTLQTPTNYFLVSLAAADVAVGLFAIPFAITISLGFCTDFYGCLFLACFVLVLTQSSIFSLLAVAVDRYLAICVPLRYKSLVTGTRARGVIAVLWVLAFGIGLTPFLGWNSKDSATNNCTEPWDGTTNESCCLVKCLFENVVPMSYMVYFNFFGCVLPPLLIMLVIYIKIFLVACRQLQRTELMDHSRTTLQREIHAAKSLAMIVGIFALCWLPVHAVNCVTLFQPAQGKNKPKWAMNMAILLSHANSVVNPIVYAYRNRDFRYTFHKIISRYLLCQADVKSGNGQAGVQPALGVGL
Put plainly: A2bR antagonism IC50, cAMP TR-FRET in HEK-293 cells, high concentration of adenosine (30 μM).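 Also: compounds preincubated 10 min with cells, then adenosine stimulation 30 min at room temperature in buffer with Rolipram 100 µM and EHNA 30 µM, TR-FRET read after 1 h.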 Particulars: A2BR IC50 (nM) (@30 μM Adenosine), HEK-293 cells expressing A2B receptor; agonist adenosine 30 μM; 2% HSA; inhibition of cAMP.
Method: as §1, §2

Molecules are shown by their SMILES. Some results are limits rather than exact numbers.

T1 sequence (P29274 whole entry): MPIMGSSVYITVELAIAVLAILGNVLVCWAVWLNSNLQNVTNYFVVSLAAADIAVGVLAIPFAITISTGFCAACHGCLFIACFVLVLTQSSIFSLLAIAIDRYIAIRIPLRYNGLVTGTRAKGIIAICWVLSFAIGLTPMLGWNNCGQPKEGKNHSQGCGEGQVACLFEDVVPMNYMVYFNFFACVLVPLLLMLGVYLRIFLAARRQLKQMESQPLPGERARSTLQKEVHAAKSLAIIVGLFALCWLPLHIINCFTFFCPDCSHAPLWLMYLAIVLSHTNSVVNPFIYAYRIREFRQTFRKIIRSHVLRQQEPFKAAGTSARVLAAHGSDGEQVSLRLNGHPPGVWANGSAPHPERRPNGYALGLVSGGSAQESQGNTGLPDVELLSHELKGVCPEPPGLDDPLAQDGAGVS

What is called IC50 is the concentration needed to halve the response being measured. For `CCc1c(C)nn2c(N)c(C#N)c(NCCc3cccn(CCCN)c3=O)nc12` [Example 136, 7-amino-5-((2-(1-(3-aminopropyl)-2-oxo-1,2-dihydropyridin-3-yl)ethyl)amino)-3-ethyl-2-methylpyrazolo[1,5-a]pyrimidine-6-carbonitrile], the IC50 in assay [1] is 506 nM; in assay [2], 2610 nM.

For the molecule `CCc1c(C)nn2c(N)c(C#N)c(NCCc3cccn(CC[S+](C)[O-])c3=O)nc12` (single isomer, unassigned; (-)) [Example 144b, (−)7-amino-3-ethyl-2-methyl-5-((2-(1-(2-(methylsulfinyl)ethyl)-2-oxo-1,2-dihydropyridin-3-yl)ethyl)amino) pyrazolo[1,5-a]pyrimidine-6-carbonitrile], the 50% inhibitory concentration (IC50) in assay [1] was determined as 254 nM; in assay [2], 815 nM.

With `Cc1nn2c(N)c(C#N)c(NCCc3ccn(C4COCC4CO)n3)nc2c1C` (single isomer, unassigned; (-)) [Example 133b, (−)-7-amino-5-((2-(1-(4-(hydroxymethyl)tetrahydrofuran-3-yl)-1H-pyrazol-3-yl)ethyl)amino)-2,3-dimethylpyrazolo[1,5-a]pyrimidine-6-carbonitrile], the 50% inhibitory concentration (IC50) in assay [1] worked out at 136 nM; in assay [2], 6070 nM.

`Cc1nn2c(N)c(C#N)c(NCCc3ccn(C4CCC4CO)n3)nc2c1Br` (stereo not shown) [Example 130, 7-amino-3-bromo-5-((2-(1-(2-(hydroxymethyl)cyclobutyl)-1H-pyrazol-3-yl)ethyl)amino)-2-methylpyrazolo[1,5-a]pyrimidine-6-carbonitrile]: the figures for the IC50 in assay [1] and in assay [2] were 280 nM and 5880 nM, respectively.

For `CCc1c(C)nn2c(N)c(C#N)c(NCCc3cccn(CCO)c3=O)nc12` [Example 108, 7-amino-3-ethyl-5-((2-(1-(2-hydroxyethyl)-2-oxo-1,2-dihydropyridin-3-yl)ethyl)amino)-2-methylpyrazolo[1,5-a]pyrimidine-6-carbonitrile], the half-maximal inhibitory concentration (IC50) worked out at 392 nM in assay [1] and 1070 nM in assay [2].

In the case of `CCc1cccc(CCNc2nc3c(Cl)c(C)nn3c(N)c2C#N)n1` [Example 120, 7-amino-3-chloro-5-((2-(6-ethylpyridin-2-yl)ethyl)amino)-2-methylpyrazolo[1,5-a]pyrimidine-6-carbonitrile], the IC50 stood at 529 nM in assay [1] and 8630 nM in assay [2].

On to `Cc1nn2c(N)c(C#N)c(NCCc3ccn(C4(CO)CC4)n3)nc2c1C(F)(F)F` [Example 94, 7-amino-5-((2-(1-(1-(hydroxymethyl)cyclopropyl)-1H-pyrazol-3-yl)ethyl)amino)-2-methyl-3-(trifluoromethyl) pyrazolo[1,5-a]pyrimidine-6-carbonitrile], for which the half-inhibitory concentration (IC50) was found to be 104 nM in assay [1] and 10000 nM in assay [2].

As for `Cc1cncc(CCNc2nc3c(C)c(C)nn3c(N)c2C#N)n1` [Example 140, 7-amino-2,3-dimethyl-5-((2-(6-methylpyrazin-2-yl)ethyl)amino) pyrazolo[1,5-a]pyrimidine-6-carbonitrile], the half-maximal inhibitory concentration (IC50) was 6020 nM in assay [1] and more than 15000 nM in assay [2].

`CCc1c(C)nn2c(N)c(C#N)c(NCCc3ccn(C4(CNC(C)=O)CC4)n3)nc12` [Example 147, N-((1-(3-(2-((7-amino-6-cyano-3-ethyl-2-methylpyrazolo[1,5-a]pyrimidin-5-yl)amino)ethyl)-1H-pyrazol-1-yl)cyclopropyl)methyl) acetamide]: the results for the IC50 in assay [1] and in assay [2] were 363 nM and 9080 nM, respectively.

Take `CCCc1c(C)nn2c(N)c(C#N)c(NCCc3cccn(CCCO)c3=O)nc12` [Example 156, 7-amino-5-((2-(1-(3-hydroxypropyl)-2-oxo-1,2-dihydropyridin-3-yl)ethyl)amino)-2-methyl-3-propylpyrazolo[1,5-a]pyrimidine-6-carbonitrile]: the results for the IC50 in assay [1] and in assay [2] were 750 nM and 2950 nM, respectively.

On to `CCc1c(C)nn2c(N)c(C#N)c(NCCc3ccn(C4COCC4CO)n3)nc12` (single isomer, unassigned; (+)) [Example 122a, (+)-7-amino-3-ethyl-5-((2-(1-(4-(hydroxymethyl)tetrahydrofuran-3-yl)-1H-pyrazol-3-yl)ethyl)amino)-2-methyl pyrazolo[1,5-a]pyrimidine-6-carbonitrile], for which the IC50 came out at 289 nM in assay [1] and 707 nM in assay [2].

Take `CCc1c(C)nn2c(N)c(C#N)c(NCCc3cccc(CO[C@@H]4CCOC4)n3)nc12` [Example 166, (R)-7-amino-3-ethyl-2-methyl-5-((2-(6-(((tetrahydrofuran-3-yl)oxy)methyl)pyridine-2-yl)ethyl)amino) pyrazolo[1,5-a]pyrimidine-6-carbonitrile]: the 50% inhibitory concentration (IC50) in assay [1] amounted to 1420 nM; in assay [2], 466 nM.

In the case of `Cc1nn2c(N)c(C#N)c(NCCc3ccn(C4(CO)CC4)n3)nc2c1C1CC1` [Example 101, 7-amino-3-cyclopropyl-5-((2-(1-(1-(hydroxymethyl)cyclopropyl)-1H-pyrazol-3-yl)ethyl)amino)-2-methylpyrazolo[1,5-a]pyrimidine-6-carbonitrile], the IC50 in assay [1] was 2100 nM; in assay [2], more than 15000 nM.

Consider `Cc1nn2c(N)c(C#N)c(NCCc3ccn(CC4CC(O)C4)n3)nc2c1Cl` (single isomer, unassigned; (-)) [Example 84, (−)-7-amino-3-chloro-5-((2-(1-((3-hydroxycyclobutyl)methyl)-1H-pyrazol-3-yl)ethyl)amino)-2-methylpyrazolo[1,5-a]pyrimidine-6-carbonitrile], for which the half-inhibitory concentration (IC50) in assay [1] worked out at 102 nM; in assay [2] it was 4250 nM.

On to `COCCn1cccc(CCNc2nc3c(Cl)c(C)nn3c(N)c2C#N)c1=O` [Example 92, 7-amino-3-chloro-5-((2-(1-(2-methoxyethyl)-2-oxo-1,2-dihydropyridin-3-yl)ethyl)amino)-2-methylpyrazolo[1,5-a]pyrimidine-6-carbonitrile], for which the values for the IC50 in assay [1] and in assay [2] were 79 nM and 5640 nM, respectively.

On to `CCc1c(C)nn2c(N)c(C#N)c(NCCc3cccn(CC4CC(O)C4)c3=O)nc12` (stereo not shown) [Example 128, 7-amino-3-ethyl-5-((2-(1-((3-hydroxycyclobutyl)methyl)-2-oxo-1,2-dihydropyridin-3-yl)ethyl)amino)-2-methylpyrazolo[1,5-a]pyrimidine-6-carbonitrile], for which the figures for the half-maximal inhibitory concentration (IC50) in assay [1] and in assay [2] were 368 nM and 1110 nM, respectively.

Take `CCc1c(C)nn2c(N)c(C#N)c(NCCc3cccn(CCC[S+](C)[O-])c3=O)nc12` (single isomer, unassigned; (-)) [Example 154a, (−)-7-amino-3-ethyl-2-methyl-5-((2-(1-(3-(methylsulfinyl)propyl)-2-oxo-1,2-dihydropyridin-3-yl)ethyl)amino) pyrazolo[1,5-a]pyrimidine-6-carbonitrile]: the IC50 was 1050 nM in assay [1] and 1540 nM in assay [2].

As for `CCc1c(C)nn2c(N)c(C#N)c(NCCc3ccn(C4(CCO)CC4)n3)nc12` [Example 124, 7-amino-3-ethyl-5-((2-(1-(1-(2-hydroxyethyl)cyclopropyl)-1H-pyrazol-3-yl)ethyl)amino)-2-methylpyrazolo[1,5-a] pyrimidine-6-carbonitrile], the concentration for half-maximal inhibition (IC50) in assay [1] came out at 126 nM; in assay [2] it was 2220 nM.

For `CCc1c(C)nn2c(N)c(C#N)c(NCCc3ccn(C4(CNCC[S+](C)[O-])CC4)n3)nc12` (single isomer, unassigned; (-)) [Example 163a, (−)-7-amino-3-ethyl-2-methyl-5-((2-(1-(1-(((2-(methylsulfinyl)ethyl)amino)methyl)cyclopropyl)-1H-pyrazol-3-yl)ethyl)amino) pyrazolo[1,5-a]pyrimidine-6-carbonitrile], the half-maximal inhibitory concentration (IC50) came to 72 nM in assay [1] and 11100 nM in assay [2].

As for `CCc1c(C)nn2c(N)c(C#N)c(NCCc3ccn(C4COCC4CO)n3)nc12` (racemic) [Example 121, (+−)-7-amino-3-ethyl-5-((2-(1-(4-(hydroxymethyl)tetrahydrofuran-3-yl)-1H-pyrazol-3-yl)ethyl)amino)-2-methyl pyrazolo[1,5-a]pyrimidine-6-carbonitrile], the IC50 is 245 nM in assay [1] and 895 nM in assay [2].

As for `CCc1c(C)nn2c(N)c(C#N)c(NCCc3ccn(C4(CNCCO)CC4)n3)nc12` [Example 106, 7-amino-3-ethyl-5-((2-(1-(1-(((2-hydroxyethyl)amino)methyl)cyclopropyl)-1H-pyrazol-3-yl)ethyl)amino)-2-methylpyrazolo[1,5-a]pyrimidine-6-carbonitrile], the IC50 in assay [1] was determined as 75 nM; in assay [2] it was 4390 nM.

With `CCc1c(C)nn2c(N)c(C#N)c(NCCc3cccc(CNCCO)n3)nc12` [Example 97, 7-amino-3-ethyl-5-((2-(6-(((2-hydroxyethyl)amino)methyl)pyridine-2-yl)ethyl)amino)-2-methylpyrazolo[1,5-a]pyrimidine-6-carbonitrile], the concentration for half-maximal inhibition (IC50) in assay [1] was determined as 451 nM; in assay [2], 1430 nM.

In the case of `CCc1c(C)nn2c(N)c(C#N)c(NCCc3cccc(C(C)O)n3)nc12` (racemic) [Example 100, 7-amino-3-ethyl-5-((2-(6-(1-hydroxyethyl)pyridin-2-yl)ethyl)amino)-2-methylpyrazolo[1,5-a] pyrimidine-6-carbonitrile], the concentration for half-maximal inhibition (IC50) is 139 nM in assay [1] and 1010 nM in assay [2].

The values above are taken from patent US12577247B2 (BUGWORKS RESEARCH, INC., priority 2021, dated 2026).
